The values below come from patent publication US20090312370A1, “MACROCYCLIC COMPOUNDS USEFUL AS BACE INHIBITORS” (priority 2006, published 2009).

In this assay the target is T1, Human BACE (Homo sapiens, UniProt P56817).
T1 construct: Recombinant BACE (extracellular domain, expressed in baculovirus and purified using standard methods); made in house; host or cells: baculovirus expression system (insect cells)
As to the kind of experiment: Test 1: Inhibition of Human BACE. The conditions noted are these: recombinant BACE, fluorescence-quenched peptide substrate, pH 4.5. Type of assay: biochemical. Here is the method: Test 1: Inhibition of Human BACE
Recombinant BACE (extracellular domain, expressed in baculovirus and purified using standard methods) at 0.1 to 10 nM concentrations is incubated with the test compound at various concentrations for 1 hour at room temperature in 10 to 100 mM acetate buffer, pH 4.5, containing 0.1% CHAPS.

One may read the IC50 as the concentration needed to halve the response being measured.

T1 sequence (P56817 46-457 limits assumed): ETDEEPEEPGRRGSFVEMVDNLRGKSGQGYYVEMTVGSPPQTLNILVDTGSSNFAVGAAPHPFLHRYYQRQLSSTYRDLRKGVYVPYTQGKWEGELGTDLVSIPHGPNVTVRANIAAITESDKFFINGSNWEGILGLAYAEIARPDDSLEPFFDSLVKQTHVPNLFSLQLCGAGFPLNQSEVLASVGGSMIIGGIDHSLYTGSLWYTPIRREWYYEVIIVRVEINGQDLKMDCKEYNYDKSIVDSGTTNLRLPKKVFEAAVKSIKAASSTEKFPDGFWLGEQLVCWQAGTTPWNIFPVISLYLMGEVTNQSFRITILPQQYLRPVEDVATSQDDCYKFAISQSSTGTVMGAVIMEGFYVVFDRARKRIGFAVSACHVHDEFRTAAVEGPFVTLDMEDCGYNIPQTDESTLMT

Consider `COc1cc2cc(c1)C(=O)N[C@H]([C@H](O)CNC1(c3cc(C(C)(C)C)ccn3)CC1)C[C@H](C)CCCCCCCN2` [Example 7, (10R,12S)-12-{(R)-2-[1-(4-tert-Butyl-pyrid-2-yl)-cyclopropylamino]-1-hydroxy-ethyl}-17-methoxy-10-methyl-2,13-diaza-bicyclo[13.3.1]nonadeca-1(19),15,17-trien-14-one], for which the IC50 was 40 nM.
